This is an account of results in patent US5672710A, “Sulfides, sulfoxides and sulfones disubstituted with a tetrahydronaphthalenyl, chromanyl, thiochromanyl or tetrahydroquinolinyl and substituted phenyl or heteroaryl group, having retinoid-like biological activity” (priority 1995, dated 1997).

pKd: −log10 of the molar value.

In one test the target is T1, RARα (Homo sapiens, UniProt P10276).
T1 construct: expressed in transfected cells; host or cells: CV1
T1 sequence (P10276 1-462): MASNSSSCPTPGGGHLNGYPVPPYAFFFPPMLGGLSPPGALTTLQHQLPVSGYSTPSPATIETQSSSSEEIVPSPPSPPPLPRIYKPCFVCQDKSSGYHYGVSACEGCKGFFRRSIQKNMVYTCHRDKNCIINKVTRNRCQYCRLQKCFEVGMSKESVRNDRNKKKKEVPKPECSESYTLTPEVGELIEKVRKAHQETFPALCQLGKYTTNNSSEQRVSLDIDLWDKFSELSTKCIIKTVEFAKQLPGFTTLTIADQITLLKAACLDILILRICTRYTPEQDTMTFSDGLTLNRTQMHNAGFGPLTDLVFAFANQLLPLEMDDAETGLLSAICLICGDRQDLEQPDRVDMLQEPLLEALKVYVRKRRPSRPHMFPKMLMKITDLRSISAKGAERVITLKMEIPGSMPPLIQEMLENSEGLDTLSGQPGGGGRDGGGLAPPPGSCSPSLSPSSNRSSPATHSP
Description: Holoreceptor transactivation assay, RARα. The settings on record: CV-1; CV1 cells; relative to all trans retinoic acid; read-out: Transactivation Assay Efficacy (% of RA activity), RARα. In kind it is cell-based. The text has this: (§1) A holoreceptor transactivation assay and a ligand binding assay which measure the ability of the compounds of the invention to bind to the several retinoid receptor subtypes, respectively, are described in published PCT Application No. WO W093/11755 (particularly on pages 30-33 and 37-41) published on Jun. 24, 1993, the specification of which is also incorporated herein by reference. A description of the holoreceptor transactivation assay is also provided below.
(§2) CV1 cells (5,000 cells/well) were transfected with an RAR reporter plasmid MTV-TREp-LUC (50 ng) along with one of the […] expression vectors (10 ng) in an automated 96-well format by the calcium phosphate procedure of Heyman et al. Cell 68, 397-406. (8). For RXRα and RXR.GAMMA. transactivation assays, an RXR-responsive reporter plasmid CRBPII-tk-LUC (50 ng) along with the appropriate RXRexpression vectors (10 ng) was used substantially as described by Heyman et al. above, and Allegretto et al. J. Biol. Chem. 268, 26625-26633. For RXRβ transactivation assays, an RXR-responsive reporter plasmid CPRE-tk-LUC ([…]) along with RXRβ expression vector ([…]) was used as described in above. These reporters contain DRI elements from human CRBPII and certain DRI elements from promoter, respectively. (see Mangelsdorf et al. The Retinoids: Biology, Chemistry and Medicine, pp 319-349, Raven Press Ltd., New York and Heyman et al., cited above) (1, 8). A β-galactosidase (50 ng) expression vector was used as an internal control in the transfections to normalize for variations in transfection efficiency. The cells were transfected in triplicate for 6 hours, followed by incubation with retinoids for 36 hours, and the extracts were assayed for luciferase and β-galactosidase activities. The detailed experimental procedure for holoreceptor transactivations has been described in Heyman et al. above, and Allegretto et al. cited above. The results obtained in this assay in connection with examplary compounds in accordance with the present invention are expressed in EC50 numbers, as they are also in the chimeric receptor transactivation assay. The Heyman et al. Cell 68, 397-406, Allegretto et al. J. Biol. Chem. 268, 26625-26633, and Mangelsdorf et al. The Retinoids: Biology, Chemistry and Medicine, pp 319-349, Raven Press Ltd., New York, are expressly incorporated herein by reference. The results of ligand binding assay are expressed in Kd numbers. (See Cheng et al. Biochemical Pharmacology Vol. 22 pp 3099-3108, expressly incorporated herein by reference.)
Regarding `CC1(C)CCC(C)(C)c2cc(S(=O)(=O)c3ccc(C(=O)O)cc3)ccc21` [Compound 5, 4-(5,6,7,8-tetrahydro-5,5,8,8-tetramethyl-2-naphthylsulfonyl)benzoic acid], the Emax was 10%.
On the same count and under the same terms, the figure for `Cc1cc2c(cc1S(=O)(=O)c1ccc(C(=O)O)cc1)C(C)(C)CCC2(C)C` [Compound 11, 4-(5,6,7,8-tetrahydro-3,5,5,8,8-pentamethyl-2-naphthylsulfonyl)benzoic acid] is 2%.
`Cc1cc2c(cc1[S+]([O-])c1ccc(C(=O)O)cc1)C(C)(C)CCC2(C)C` (centres unmarked) [Compound 9, 4-(5,6,7,8-tetrahydro-3,5,5,8,8-pentamethyl-2-naphthylsulfoxy)benzoic acid]: the Emax was determined as 5%.
Same read-out and setting: as for `CC1(C)CCC(C)(C)c2cc(Sc3ccc(C(=O)O)cc3)ccc21` [Compound 2], the figure is 3%; as for `Cc1cc2c(cc1Sc1ncc(C(=O)O)s1)C(C)(C)CCC2(C)C` [Compound 15, 2-(5,6,7,8-Tetrahydro-3,5,5,8,8-pentamethyl-2-naphthylthio)-5-thiazolecarboxylic acid], 1%; as for `Cc1cc2c(cc1Sc1ccc(C(=O)O)cc1)C(C)(C)CCC2(C)C` [Compound 7, 4-(5,6,7,8-tetrahydro-3,5,5,8,8-pentamethyl-2-Daphthylthio)benzoic acid], 3%.
Turning to `Cc1cc2c(cc1Sc1ccc(C(=O)O)cn1)C(C)(C)CCC2(C)C` [Compound 13], the Emax amounted to 1%.

The target in a further test is T2, RXRα (Homo sapiens, UniProt P19793).
T2 construct: expressed in transfected cells; host or cells: CV1
T2 sequence (P19793 1-462): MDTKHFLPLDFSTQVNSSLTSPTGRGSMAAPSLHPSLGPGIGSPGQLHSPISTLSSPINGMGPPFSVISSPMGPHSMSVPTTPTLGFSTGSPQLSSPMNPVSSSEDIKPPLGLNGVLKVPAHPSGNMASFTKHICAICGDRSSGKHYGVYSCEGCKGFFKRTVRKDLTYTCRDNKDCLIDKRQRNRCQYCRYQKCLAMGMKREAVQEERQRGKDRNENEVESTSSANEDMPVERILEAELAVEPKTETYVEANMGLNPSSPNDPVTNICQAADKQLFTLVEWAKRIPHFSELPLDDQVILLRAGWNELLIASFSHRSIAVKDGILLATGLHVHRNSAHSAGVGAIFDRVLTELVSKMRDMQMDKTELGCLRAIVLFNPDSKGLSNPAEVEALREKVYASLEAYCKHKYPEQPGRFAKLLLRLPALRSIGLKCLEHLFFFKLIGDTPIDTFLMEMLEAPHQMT
Description: Ligand binding assay, RXRα.
Settings: not given
From the text: as §1, §2
Regarding `CC1(C)CCC(C)(C)c2cc(S(=O)(=O)c3ccc(C(=O)O)cc3)ccc21` [Compound 5, 4-(5,6,7,8-tetrahydro-5,5,8,8-tetramethyl-2-naphthylsulfonyl)benzoic acid], the pKd (commonly the negative decadic logarithm of the Kd, by convention in mol/L) is < 6.00.
On the same count and under the same terms, the figure for `Cc1cc2c(cc1S(=O)(=O)c1ccc(C(=O)O)cc1)C(C)(C)CCC2(C)C` [Compound 11, 4-(5,6,7,8-tetrahydro-3,5,5,8,8-pentamethyl-2-naphthylsulfonyl)benzoic acid] is < 6.00; for `Cc1cc2c(cc1[S+]([O-])c1ccc(C(=O)O)cc1)C(C)(C)CCC2(C)C` (centres unmarked) [Compound 9, 4-(5,6,7,8-tetrahydro-3,5,5,8,8-pentamethyl-2-naphthylsulfoxy)benzoic acid] it is < 6.00; for `CC1(C)CCC(C)(C)c2cc(Sc3ccc(C(=O)O)cc3)ccc21` [Compound 2] it is < 6.00.
For the compound `Cc1cc2c(cc1Sc1ncc(C(=O)O)s1)C(C)(C)CCC2(C)C` [Compound 15, 2-(5,6,7,8-Tetrahydro-3,5,5,8,8-pentamethyl-2-naphthylthio)-5-thiazolecarboxylic acid], the pKd was < 6.00.
On the same count and under the same terms, the figure for `Cc1cc2c(cc1Sc1ccc(C(=O)O)cc1)C(C)(C)CCC2(C)C` [Compound 7, 4-(5,6,7,8-tetrahydro-3,5,5,8,8-pentamethyl-2-Daphthylthio)benzoic acid] is 6.53; for `Cc1cc2c(cc1Sc1ccc(C(=O)O)cn1)C(C)(C)CCC2(C)C` [Compound 13] it is 7.49.

In a further test the target is T3, RXRγ (Mus musculus, UniProt P28705).
T3 construct: expressed in transfected cells; host or cells: CV1
T3 sequence (P28705 1-463): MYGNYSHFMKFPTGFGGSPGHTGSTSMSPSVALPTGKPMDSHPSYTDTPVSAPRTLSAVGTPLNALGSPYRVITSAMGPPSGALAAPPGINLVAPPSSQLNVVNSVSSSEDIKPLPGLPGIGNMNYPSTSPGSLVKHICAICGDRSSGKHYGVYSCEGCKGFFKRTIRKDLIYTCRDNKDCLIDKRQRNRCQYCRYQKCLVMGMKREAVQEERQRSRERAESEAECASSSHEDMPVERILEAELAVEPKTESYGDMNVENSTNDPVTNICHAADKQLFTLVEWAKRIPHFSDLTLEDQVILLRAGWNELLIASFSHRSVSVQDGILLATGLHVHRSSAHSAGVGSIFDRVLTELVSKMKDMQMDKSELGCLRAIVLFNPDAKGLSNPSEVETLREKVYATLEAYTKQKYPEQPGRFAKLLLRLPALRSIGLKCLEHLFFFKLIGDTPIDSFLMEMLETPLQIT
Description: Ligand binding assay, RXRγ.
Settings: not given
From the text: as §1, §2
Consider `CC1(C)CCC(C)(C)c2cc(S(=O)(=O)c3ccc(C(=O)O)cc3)ccc21` [Compound 5, 4-(5,6,7,8-tetrahydro-5,5,8,8-tetramethyl-2-naphthylsulfonyl)benzoic acid], for which the pKd is < 6.00.
As to `Cc1cc2c(cc1S(=O)(=O)c1ccc(C(=O)O)cc1)C(C)(C)CCC2(C)C` [Compound 11, 4-(5,6,7,8-tetrahydro-3,5,5,8,8-pentamethyl-2-naphthylsulfonyl)benzoic acid], the pKd was < 6.00.
`Cc1cc2c(cc1[S+]([O-])c1ccc(C(=O)O)cc1)C(C)(C)CCC2(C)C` (centres unmarked) [Compound 9, 4-(5,6,7,8-tetrahydro-3,5,5,8,8-pentamethyl-2-naphthylsulfoxy)benzoic acid]: the pKd is < 6.00.
Same read-out and setting: the figure for `Cc1cc2c(cc1Sc1ncc(C(=O)O)s1)C(C)(C)CCC2(C)C` [Compound 15, 2-(5,6,7,8-Tetrahydro-3,5,5,8,8-pentamethyl-2-naphthylthio)-5-thiazolecarboxylic acid] is < 6.00.
Regarding `Cc1cc2c(cc1Sc1ccc(C(=O)O)cc1)C(C)(C)CCC2(C)C` [Compound 7, 4-(5,6,7,8-tetrahydro-3,5,5,8,8-pentamethyl-2-Daphthylthio)benzoic acid], the pKd was 6.52.
Same read-out and setting: as for `Cc1cc2c(cc1Sc1ccc(C(=O)O)cn1)C(C)(C)CCC2(C)C` [Compound 13], the figure is 7.14.
